Key:
[1] = test system: AMD diagnosis in Medicare patients; assay: MarketScan retrospective analysis of AMD diagnosis in dabigatran-exposed vs matched control Medicare patients; format: in vivo, human
From the text: Material and methods. MarketScan analysis: Population. A total of 41,860 dabigatran-exposed and 41,860 non-exposed controls, for a total of 83,720 Medicare patients were extracted from MarketScan® data from 2010-2015 and used in the analysis. Patients with an inpatient or outpatient record with a diagnosis of AMD (wet or dry) for the baseline period were excluded from inclusion in the data set. Patients who filled at least one prescription of dabigatran during the 2011-2012 exposure period were included in the dabigatran group. The date of the first filled prescription was designated as the Index Date. […] The first patient record date in randomly selected records from 2011 or 2012 was chosen as the Index Date for control group patients. Patients with <90 days of insurance coverage in the baseline period or <120 days of coverage in the study (exposure) period were excluded from the final cohort. The exposed and control patients were matched by age, sex, state of residence, Index Date, days in baseline period, and days in study period using 1:1 propensity score mating with a greedy algorithm and a caliper distance of 0.2.
Survival and Statistical Analysis. Survival analysis was used (Schnabolk et al., 2019) to show differences in time until AMD diagnosis among dabigatran users and control subjects using the […] procedure. AMD diagnoses were identified using ICD-9 codes 362.5 (unspecified macular degeneration), 362.51 (dry AMD), and 362.52 (wet AMD). A period of ˜5 years (from Jul. 1, 2010, to Dec. 31, 2015) was used for this analysis, and preexisting AMD diagnosis was ruled out by requiring that the subjects be AMD free over the first ˜600 days (designated as baseline days or Base Days). Data on the matched control and dabigatran population were analyzed using multivariable logistic and Cox regression. Specifically, the odds of being diagnosed with AMD during the follow-up time, controlling for days of dabigatran exposure, and the proportional hazard rates of obtaining an AMD diagnosis in the dabigatran or control population as well as any baseline differences in demographics or comorbidities was compared (Charlson or Elixhouser diagnoses).
Results. Association between Dabigatran Use and AMD Risk. The patient population consisted of 83,720 Medicare patients extracted from MarketScan® data from 2010-2015 as described herein, with 41,860 dabigatran-exposed and 41,860 non-exposed controls. The controls were matched on 33 baseline variables, including demographics and clinical characteristics (Schnabolk, G., et al. (2019). Invest Ophthalmol Vis Sci 60, 3520-3526) (Table 1).

complement component C3 = assay: Thrombin-mediated C3 cleavage in apical supernatants of ARPE-19 cells (western blot); format: cell-based, human; details: 10 μM
Description: Second, it was tested whether thrombin can cleave complement components (Huber-Lang, M., et al. (2006). Nat Med 12, 682-687; and Krisinger, M. J., et al. (2012). Blood 120, 1717-1725), specifically C3 and C5, producing cleavage products potentially different from those produced by classical convertases. To test the effects of thrombin on complement cleavage, the apical supernatants of treated ARPE-19 cell monolayers were analyzed by western blotting. Cleavage of C3α was evaluated using an antibody specific for C3a (FIG. 5A, left-hand blot). The C3a antibody detected C3, the C3α band as well as other fragments containing C3a. Thrombin caused a concentration dependent cleavage of complement component C3 (˜190 kDa), caused reduction of the 120 kDa C3a band and generation of a new 80 kDa fragment. Fragments at 32 kDa and 9-10 kDa with higher doses of thrombin treatment (FIG. 5A, 10 U/mL) were also observed. The 9-10 kDa band ran at the same molecular weight as purified C3a (FIG. 11). The reduction of the 120 kDa fragment was correlated with the generation of the 80 kDa fragment (FIG. 5B). The loss of the 120 kDa fragment was prevented by either dabigatran (10 μM) or the C3 inhibitor compstatin (100 μM), which inhibits complement both on cell membranes as well as in fluid phase, but not by TT30 (10 μM), which is an inhibitor that prevents membrane-bound AP activation (FIG. 5C). […]

[2] = dabigatran chow, ˜10 mg/kg bodyweight per day; cited from earlier work
[3] = test system: CTGF expression in ARPE-19 cells; assay: Thrombin-induced CTGF expression in ARPE-19 cell lysates (western blot); details: dabigatran 10 μM, thrombin 1 U/mL
Description: Cell culture experiments: Cells. Human ARPE-19 (ATCC® CRL-2302™; American Type Culture Collection, Manassas VA) cells were cultured in DMEM cell culture media (Gibco/ThermoFisher Scientific) containing high glucose DMEM with D-glucose (4.5 g/L), L-glutamine, sodium pyruvate (110 mg/L), Penicillin and Streptomycin (1×) and 10% of FBS. Cells (<passage 10 after purchase) were expanded in T75 cell culture flasks at 37° C., in the presence of 5% CO2. Confluent cells were trypsinized with 0.05% trypsin (Gibco), and equal numbers of cells were seeded on 6-well transwell filters/plate (Costar). […] Integrity of the cell monolayer was assessed by Transepithelial resistance (TER) measurements using an EVOM volt-ohmmeter (World Precision Instruments) four weeks after plating. RPE monolayers with a stable TER repeatedly measured as ˜40-45 S2 cm 2 were used for these experiments.
Treatments. Prior to each experiment, the cell monolayer was washed with serum-free medium (SFM) and maintained in SFM for 24 hours. […] Treatments were performed on the apical side of the transwell membrane, which represents the retinal side of the RPE in vivo. Some of the cells were treated with thrombin (EMD Millipore Corp), complement components C3a, C5a (Complement Technology), thrombin agonist PAR1-AP (Sigma-Aldrich; amino acid sequence SFLLRN (SEQ ID NO: 1)), thrombin inhibitor dabigatran etexilate (Sigma-Aldrich), C3 inhibitor compstatin (R&D Systems), AP inhibitor TT30 (Alexion Therapeutics), a protease inhibitor alpha1-antitrypsin (Sigma-Aldrich), and the thrombin receptor proteinase activated receptor 1 inhibitor SCH 79797 (Sigma-Aldrich). Treatments were performed 60 min prior to the addition of thrombin. Cell culture supernatant and lysate were collected after specific time points or after 24 hrs of treatment and stored at −20° C. for later use.
Western blotting. […] Cell lysates were collected in RIPA cell lysis buffer containing 150 mM NaCl, 1.0% IGEPAL® CA-630, 0.5% sodium deoxycholate, 0.1% SDS, 50 mM Tris (pH 8.0) (Sigma-Aldrich) in presence of 1×protease inhibitor (Sigma-Aldrich). Equal amount of each samples were loaded on 4-20% Criterion™ TGX™ precast gels (Bio-Rad Laboratories, Inc.) (Annamalai, B., et al. (2020). Invest Ophthalmol Vis Sci 61, 45). Proteins were transferred to a nitrocellulose membrane and incubated in primary antibody followed by appropriate secondary antibodies coupled to peroxidase, followed by band development and detection using Clarity™ Western ECL blotting substrate (Bio-Rad Laboratories, Inc.) and chemiluminescent detection. Protein bands were scanned and densities quantified using ImageJ software. The following antibodies were used: C3a (1:1000; Complement Technology), C5a (1:1000; Abcam), connective tissue growth factor/CTGF (1:1000; Abcam), C3d anti-C3d (clone 11, 1:1000; generation of the antibody is described in (Thurman, J. M., et al. (2013). J Clin Invest 123, 2218-2230)), VEGF (1:1000, Santa Cruz Biotechnology, Inc.), β-actin (1:2000; Cell Signaling Technology) and concentrations selected based on the data sheet recommendations.
ARPE-19 cell monolayers were treated with thrombin (0.5-10 U/ml) and cell lysates were collected and analyzed for CTGF levels at 4 hrs post treatment by western blotting.

[4] = test system: C3d and C5b-9 deposition on ARPE-19 cells; assay: C3d and MAC (C5b-9) deposition on ARPE-19 cell surfaces (immunofluorescence); details: 10 μM, compared with thrombin-treated cells (20 U/mL)
Description: ARPE-19 cells were grown on transwell membranes in 6 well plates (Thurman, J. M., et al. (2009). J Biol Chem 284, 16939-16947), treated with thrombin and inhibitors, and fixed in 4% paraformaldehyde for 15 min at room temperature. Primary antibodies against C5b-9 (1:200, Abcam) and C3d (1:100) (Thurman, J. M., et al. (2013). J Clin Invest 123, 2218-2230) were diluted in blocking buffer (10% normal goat serum, 3% BSA, 0.4% Triton X-100 in PBS) and cells were incubated for overnight at 4° C., followed by washes and incubation with goat anti-rabbit Alexa Fluor® 568—conjugated IgG or donkey anti-goat Alexa Fluor® 488-conjugated secondary antibodies (1:500; Thermo Fisher Scientific), respectively. Nuclei were identified with DAPI (Sigma-Aldrich). Transwell membranes were covered with aqua-mount mounting media (Thermo Scientific), cover slipped and photographed (Olympus 1X73 Research Inverted Microscope equipped with cellSens imaging software).
First, it was tested whether thrombin results in deposition of C3d and the assembly of MAC on ARPE-19 cell surfaces. ARPE-19 cell monolayers were treated apically with thrombin and deposition of MAC (C5b-9; red) and C3d (green) were examined by immunofluorescence staining (FIG. 4A).

[5] = 1-2 years exposure to dabigatran
[6] = 2+ years exposure to dabigatran

For `CCCCCCOC(=O)NC(=N)c1ccc(NCc2nc3cc(C(=O)N(CCC(=O)OCC)c4ccccn4)ccc3n2C)cc1`, the “% AMD per study year” value [1, 5] was 3.25%, the “% patients with a wet AMD diagnosis” value [1, 5] was 0.90% and the “% patients with an AMD diagnosis” value [1, 5] was 10.11%. For the same compound, the “% wet AMD per study year” value [1, 5] was 0.26%, the “risk of AMD by exposure strata (odds ratio vs controls)” value (from here on “risk of AMD … (odds ratio vs controls)”) ([1]; 1-2 years of dabigatran) was 0.64 and the “% AMD per study year” value [1, 6] was 3.00%. For the same compound, the “% patients with a wet AMD diagnosis” value [1, 6] was 1.35%, the “% patients with an AMD diagnosis” value [1, 6] was 12.26% and the “% wet AMD per study year” value [1, 6] was 0.29%. For the same compound, the “risk of AMD … (odds ratio vs controls)” value ([1]; 2+ years of dabigatran) was 0.64, the “% AMD per study year” value ([1]; <1 year exposure to dabigatran) was 3.04% and the “% patients with a wet AMD diagnosis” value ([1]; <1 year exposure to dabigatran) was 0.75%. The “% patients with an AMD diagnosis” value ([1]; <1 year exposure to dabigatran) was 7.51%, the “% wet AMD per study year” value ([1]; <1 year exposure to dabigatran) was 0.28% and the “risk of AMD … (odds ratio vs controls)” value ([1]; <1 year of dabigatran) was 0.52. For the same compound, the “% AMD per study year” value ([1]; all dabigatran users) was 3.07%, the “% patients with a wet AMD diagnosis” value ([1]; all dabigatran users) was 0.91% and the “% patients with an AMD diagnosis” value ([1]; all dabigatran users) was 9.1%. The “% wet AMD per study year” value ([1]; all dabigatran users) was 0.28%, the “% patients with an AMD diagnosis” value ([1]; all dabigatran users, listed as Dabigatran) was 9.10% and the “reduction of percent AMD per study year” value ([1]; dabigatran vs control group) was ~35%. The “reduction of percent patients with a wet AMD diagnosis” value ([1]; dabigatran vs control group) was ~60%, the “hazard ratio, time to first recorded diagnosis of unspecified AMD” value ([1]; dabigatran vs matched controls, P<0.0001) was 0.63 and the “Days to AMD, Mean” value ([1]; dabigatran-exposed subjects, n 3810) was 562 days. The “Wet Days, Mean” value ([1]; dabigatran-exposed subjects, n 38399) was 1047 days, the “Dry Days, Mean” value ([1]; dabigatran-exposed subjects, n 41511) was 1011 days and the “AMD Days, Mean” value ([1]; dabigatran-exposed subjects, n 41860) was 1007 days. For the same compound, the “odds ratio (OR) of AMD” value ([1]; multivariable logistic regression controlling for age, sex, days in study, CI 0.55-0.61) was 0.58, the “effect on thrombin-mediated loss of the 120 kDa C3 fragment” value (complement component C3) was “prevented” and the “blood plasma concentration of dabigatran” value [2] was 372 ± 30 ng/mL. For the same compound, the “elongation of coagulation times” value [2] was 3 fold, the “reduction of thrombin-induced CTGF expression” value [3] was 3.2 fold and the “reduction of C5b-9 deposition” value [4] was ~50%. The “reduction of C3d deposition” value [4] was ~60%.

— patent US20230381163A1, “DABIGATRAN COMPOSITIONS AND METHODS OF TREATING AGE-RELATED MACULAR DEGENERATION” (The United States Government As Represented By The …, priority 2022, published 2023)
